Reference: US11780841B2, “3,6-methano-1H-pyrrolo[3,2-b]pyridine and 3,6-methano-1H-pyrrolo[3,2-c]pyridine compounds and medicaments using same” (priority 2018, dated 2023)
Where two headings read alike, the source gives them in different places.

Test system: recombinant rabies virus 1088 strain expressing Gaussia Luciferase (GLuc) (1088/GLuc)
Type: cell-based

Compound | IC50 (read-out: Anti-rabies activity) [µM] | IC50 (read-out: IC50) [µM]
CC(C)CCN1C[C@@H]2C[C@@H]3CN[C@]2(C(=O)NCc2ccccc2)[C@@H]1[C@@H]3CCC(=O)O [IB-505] | 10 to 30 | 
CC(C)C[C@@H]1[C@H]2CN[C@@]3(C(=O)NCc4cccc5ccccc45)[C@@H](C2)CN(CCC(=O)O)[C@@H]13 [IB-392] | 10 to 30 | 
CC(C)CCNC(=O)[C@]12NC[C@H]3C[C@H]1CN(CC(N)=O)[C@H]2[C@@H]3Cc1cccc2ccccc12 [IB-103] | 10 to 30 | 
CC(C)C[C@@H]1[C@@H]2[C@@H]3CN[C@@]1(C(=O)NCc1ccccc1)C[C@@H]3CN2Cc1cccc(Cl)c1 [IF-840] | 5 to 10 | 
CC(C)CCN1C[C@H]2C[C@]3(C(=O)NCc4ccccc4)NC[C@H]2[C@H]1[C@H]3CC(C)C [IF-851] | 10 to 30 | 
CC(C)C[C@@H]1[C@@H]2[C@@H]3CN[C@@]1(C(=O)NCc1cccc4ccccc14)C[C@@H]3CN2Cc1ccccc1 [IF-837] | 5 to 10 | 
CC(C)CNC(=O)[C@]12NC[C@H]3C[C@H]1CN(CCC(=O)O)[C@H]2[C@@H]3CCc1ccccc1 [IB-430] | < 5 | 
Cc1ccc(CN2C[C@@H]3C[C@@H]4CN(C(N)=O)[C@]3(C(=O)NCc3ccccc3)[C@@H]2[C@@H]4CC(C)C)cc1 (relative stereo) [IB-888] | 10 to 30 | 
CC(C)CNC(=O)[C@@]12C[C@@H]3CN(CC(C)C)[C@@H]([C@@H]3CN1)[C@H]2CCc1ccccc1 [IF-679] | < 5 | 
CC(C)CN1C[C@H]2C[C@]3(C(=O)NCc4ccccc4)NC[C@H]2[C@H]1[C@H]3Cc1cccc2ccccc12 [IF-753] | 10 to 30 | 
CCN1C[C@@H]2[C@H]3CN(Cc4ccc(C)cc4)[C@@H]2[C@@H](CC(C)C)[C@]1(C(=O)NCc1ccccc1)C3 [IF-855] | 5 to 10 | 
CC(C)C[C@@H]1[C@H]2CN[C@@]3(C(=O)NCCO)[C@@H](C2)CN(CC2CCCCC2)[C@@H]13 [IB-646] | 10 to 30 | 
NC(=O)CCNC(=O)[C@@]12C[C@@H]3CN(CCc4ccccc4)[C@@H]([C@@H]3CN1)[C@H]2CC(N)=O [IF-219] | 10 to 30 | 
CC(C)CCNC(=O)[C@@]12C[C@@H]3CN(CCc4ccccc4)[C@@H]([C@@H]3CN1)[C@H]2Cc1ccc(O)cc1 [IF-707] | < 5 | 
O=C(NCc1ccc(F)cc1)[C@]12NC[C@H]3C[C@H]1CN(CCc1ccccc1)[C@H]2[C@@H]3Cc1ccc(O)cc1 [IB-642] | < 5 | 
CC(C)CC[C@@H]1[C@H]2CN[C@@]3(C(=O)NCCC(N)=O)[C@@H](C2)CN(Cc2ccc(F)cc2)[C@@H]13 [IB-365] | 10 to 30 | 
O=C(NCc1cccc2ccccc12)[C@]12NC[C@H]3C[C@H]1CN(Cc1cccc4ccccc14)[C@H]2[C@@H]3CCc1ccccc1 [IB-804] | < 5 | 
CCCCCCNC(=O)[C@]12NC[C@H]3C[C@H]1CN(CCO)[C@H]2[C@@H]3CCC(C)C [IB-490] | < 5 | 
Cc1cccc(C[C@@H]2[C@@H]3CN[C@@]4(C(=O)NCc5ccccc5)[C@@H](C3)CN(CC(C)C)[C@@H]24)c1 (relative stereo) [IB-13] | 10 to 30 | 14.3
CC(C)NC(=O)[C@@]12C[C@@H]3CN(Cc4cccc5ccccc45)[C@@H]([C@@H]3CN1)[C@H]2Cc1cccc2ccccc12 [IF-596] | 10 to 30 | 
CC(C)CCN1C[C@@H]2C[C@@H]3CN[C@]2(C(=O)NCCC(=O)O)[C@@H]1[C@@H]3CC(C)C [IB-611] | 10 to 30 | 
CC(C)CN1C[C@H]2C[C@]3(C(=O)NCCc4ccccc4)NC[C@H]2[C@H]1[C@H]3Cc1ccc(O)cc1 (relative stereo) [IF-567] | 10 to 30 | 
CC(C)CCNC(=O)[C@@]12C[C@@H]3CN(Cc4ccccc4)[C@@H]([C@@H]3CN1)[C@H]2CC(C)C [IF-691] | 10 to 30 | 
CC(C)CNC(=O)[C@@]12C[C@@H]3CN(CCc4ccccc4)[C@@H]([C@@H]3CN1)[C@H]2CC(C)C [IF-738] | 10 to 30 | 
CCCCCCNC(=O)[C@@]12C[C@@H]3CN(Cc4ccccc4)[C@@H]([C@@H]3CN1)[C@H]2Cc1ccc(O)cc1 [IF-692] | < 5 | 

Compound | IC50 (read-out: Anti-rabies activity) [µM] | IC50 (read-out: IC50) [µM]
CC(C)CCN1C[C@@H]2C[C@@H]3CN[C@]2(C(=O)NCCC(N)=O)[C@@H]1[C@@H]3CCc1ccccc1 [IB-636] | 10 to 30 | 
CCCCCCNC(=O)[C@@]12C[C@@H]3CN(CC(N)=O)[C@@H]([C@@H]3CN1)[C@H]2Cc1cccc2ccccc12 [IF-110] | < 5 | 
O=C(NCCO)[C@]12NC[C@H]3C[C@H]1CN(Cc1cccc4ccccc14)[C@H]2[C@@H]3Cc1ccc(O)cc1 [IB-459] | 10 to 30 | 
O=C(NCc1ccccc1)[C@@]12C[C@@H]3CN(Cc4ccc(F)cc4)[C@@H]([C@@H]3CN1)[C@H]2Cc1ccccc1 [IF-649] | < 5 | 
CCCCCCNC(=O)[C@@]12C[C@@H]3CN(CC(C)C)[C@@H]([C@@H]3CN1)[C@H]2CC(C)C (relative stereo) [IF-569] | 10 to 30 | 
N=C(N)NCCC[C@@H]1[C@@H]2[C@@H]3CN[C@@]1(C(=O)NCc1cccc4ccccc14)C[C@@H]3CN2Cc1ccccc1 [IF-284] | 10 to 30 | 
O=C(O)CCN1CC2CC3CNC2(C(=O)NCc2ccc(O)cc2)C1C3Cc1cccc2ccccc12 (stereo not drawn) [IB-516] | 10 to 30 | 
CC(C)CCNC(=O)[C@@]12C[C@@H]3CN(CC(C)C)[C@@H]([C@@H]3CN1)[C@H]2CCc1ccccc1 [IF-673] | < 5 | 
COc1ccc(CN2C[C@@H]3C[C@@H]4CN[C@]3(C(=O)NCc3ccccc3)[C@@H]2[C@@H]4CC(C)C)cc1 [IB-866] | 5 to 10 | 
CC(C)C[C@@H]1[C@@H]2[C@@H]3CN[C@@]1(C(=O)NCc1ccc(F)cc1)C[C@@H]3CN2Cc1ccccc1 [IF-807] | < 5 | 
NC(=O)CN1C[C@@H]2C[C@@H]3CN[C@]2(C(=O)NCc2ccccc2)[C@@H]1[C@@H]3CCc1ccccc1 [IB-130] | 10 to 30 | 
Cc1ccc(C[C@@H]2[C@@H]3[C@@H]4CN[C@@]2(C(=O)NCc2ccccc2)C[C@@H]4CN3CC(C)C)cc1 (relative stereo) [IF-14] | 10 to 30 | 14.1
Cc1ccc(CN2C[C@H]3C[C@@]4(C(=O)NCc5ccccc5)[C@H](CC(C)C)[C@@H]2[C@@H]3CN4CC(C)C)cc1 [IF-856] | < 5 | 
CC(C)CC1C2C=NC3(C(=O)NCc4ccccc4)C(C2)CN(Cc2ccc(Cl)cc2)C13 (stereo not drawn) [IIB-83] | < 5 | 
CCCCCCNC(=O)[C@]12NC[C@H]3C[C@H]1CN(Cc1ccccc1)[C@H]2[C@@H]3CCCNC(=N)N [IB-249] | 10 to 30 | 
CC(C)CC1C2C3C=NC1(C(=O)NCc1ccccc1)CC3CN2Cc1cccc(Cl)c1 (stereo not drawn) [IIF-84] | 5 to 10 | 
CC(C)CCC1C2C3C=NC1(C(=O)NCc1ccccc1)CC3CN2Cc1ccc(O)cc1 (stereo not drawn) [IIF-101] | 5 to 10 | 
CC(C)CNC(=O)[C@]12NC[C@H]3C[C@H]1CN(CC(C)C)[C@H]2[C@@H]3CCCNC(=N)N [IB-187] | 10 to 30 | 
CCCCCCNC(=O)[C@]12NC[C@H]3C[C@H]1CN(CCO)[C@H]2[C@@H]3Cc1ccc(O)cc1 [IB-478] | 10 to 30 | 
COc1ccc(CN2CC3CC4C=NC3(C(=O)NCc3ccccc3)C2C4CC(C)C)cc1 (stereo not drawn) [IIB-85] | 5 to 10 | 
N=C(N)NCCCNC(=O)[C@]12NC[C@H]3C[C@H]1CN(CCc1ccccc1)[C@H]2[C@@H]3Cc1ccccc1 [IB-344] | 10 to 30 | 
N=C(N)NCCCNC(=O)[C@]12NC[C@H]3C[C@H]1CN(CCc1ccccc1)[C@H]2[C@@H]3Cc1cccc2ccccc12 [IB-347] | 10 to 30 | 
CC(C)CC[C@@H]1[C@@H]2[C@@H]3CN[C@@]1(C(=O)NCCc1ccccc1)C[C@@H]3CN2CC(C)C [IF-727] | < 5 | 
N=C(N)NCCCNC(=O)[C@]12NC[C@H]3C[C@H]1CN(CC1CCCCC1)[C@H]2[C@@H]3CCc1ccccc1 [IB-362] | < 5 | 
